“Also recorded” adds a separate entry of the source.
Assays:
[1] = test system: Staphylococcus aureus (MB 703); test: in vitro activity; format: cell-based
Ps. stutzeri 1231 = test: Antibiotic Spectrum Profile, agar diffusion test; format: cell-based; conditions: Stutzerimonas stutzeri, 1 mg./ml., read-out: Diameters of Inhibition Zones
bacteria = test: antibacterial activity in vivo in mice; conditions: in words
PPLO [2] = test: PPLO in pigs; format: in vivo
[3] = test system: Staphylococcus aureus (MB 108); test: in vitro activity; format: cell-based
[4] = test system: Xanthomonas vesicatoria 815; test: Antibiotic Spectrum Profile, agar diffusion test; format: cell-based; conditions: 1 mg./ml., read-out: Diameters of Inhibition Zones
Proteus vulgaris = test: in vivo test in mice, Proteus vulgaris infection; conditions: infection IP, therapy IP, at time of infection and 6 hours later
Method: *Values in the table are expressed in mg./mouse. Both infections and
therapeutic doses of FR-02A were administered intraperitoneally. FR-02A
was administered at time of infection and again 6 hours later.

[5] = test system: Bordetella bronchiseptica; test: systemic infections produced by Bordetella bronchiseptica in mice; format: in vivo; conditions: orally
[6] = test system: Salmonealla gallinarum (MB 1287); test: in vitro activity; format: cell-based
[7] = test system: Brucella bronchiseptica 965; test: microbe, parasite or virus in culture; format: cell-based; conditions: Bordetella bronchiseptica, 965, read-out: Diameters of Inhibition Zones
M. arthritidis = test: in vitro activity; format: cell-based
E. coli (MB 1418) = test: in vitro activity; format: cell-based
Bordetella = test: in vitro activity; format: cell-based
[8] = test system: Corynebacterium pseudodiphtheriticum 261; test: Antibiotic Spectrum Profile, agar diffusion test; format: cell-based; conditions: 1 mg./ml., read-out: Diameters of Inhibition Zones
[9] = test system: Klebsiella pneumoniae (MB 1264); test: in vitro activity; format: cell-based
[10] = test system: Bacillus subtilis (MB 797); test: in vitro activity; format: cell-based
[11] = test system: Staphylococcus aureus 108; test: Antibiotic Spectrum Profile, agar diffusion test; format: cell-based; conditions: 1 mg./ml., read-out: Diameters of Inhibition Zones
PPLO [12] = test: PPLO in cattle; format: in vivo
Streptococcus pyogenes = test: in vitro activity; format: cell-based
M. gallisepticum = test: in vitro activity; format: cell-based
solubility = format: physicochemical; conditions: water-immiscible organic solvents
Vibrio percolans = test: agar-diffusion bioassay using Vibrio percolans; format: cell-based; conditions: Comamonas terrigena; concentration of 200 μ/ml.; LH-20 product
Method: A 0.5 ml. solution of methanol containing 106 mg. of FR-02A obtained from Example 1 above is charged to a 75 ml. bed (1.25 cm. dia. × 56 cm. ht.) of Sephadex LH-20 gel in methanol (Pharmacia Fine Chemicals, Inc., Piscataway, N.J.). The column is developed with methanol. […] Fractions are bioassayed at a 1-10 dilution with 1/2 dia. paper discs on agar-diffusion assay plates seeded with Vibrio percolans. Zones of inhibition are obtained corresponding to the third mass peak (KD = 0.3) detected. The fractions corresponding to the third mass peak are combined and evaporated to yield 43 mg. of FR-02A.
The product when assayed in the above agar-diffusion bioassay using Vibrio percolans gives a 16 mm. zone of inhibition at a concentration of 200 μ/ml. The U.V. absorption in pH 7.0 phosphate buffer was: […]

[13] = test system: Pseudomonas aeruginosa (MB 3210); test: in vitro activity; format: cell-based
species of Mycoplasma = test: activity against Mycoplasma; format: cell-based
Streptococcus faecalis = test: in vitro activity; format: cell-based
stability to handling = format: physicochemical; conditions: pale yellow solid
Escherichia coli 1418 = test: Antibiotic Spectrum Profile, agar diffusion test; format: cell-based; conditions: 1 mg./ml., read-out: Diameters of Inhibition Zones
Strep. faecium 2820 = test: Antibiotic Spectrum Profile, agar diffusion test; format: cell-based; conditions: Enterococcus faecium, 1 mg./ml., read-out: Diameters of Inhibition Zones
[14] = test system: Streptococcus faecalis 753; test: Antibiotic Spectrum Profile, agar diffusion test; format: cell-based; conditions: Enterococcus faecalis, 1 mg./ml., read-out: Diameters of Inhibition Zones
[15] = test system: Klebsiella pneumoniae 1264; test: Antibiotic Spectrum Profile, agar diffusion test; format: cell-based; conditions: 1 mg./ml., read-out: Diameters of Inhibition Zones
gram-positive bacteria = test: antibacterial activity; format: cell-based

Structure (SMILES): CC=CC=CC1OC(O)(C(CC)C(=O)NCC=CC=C(C)C(OC)C(C)C2OC(C=CC=CC=C(C)C(=O)c3c(O)ccn(C)c3=O)C(O)C2O)C(O)C(OC2OC(C)C(OC3OC(C)C(OC)C(O)C3OC)C(OC)C2O)C1(C)C (stereo not shown) [FR-02A, efrotomycin]
- activity [1]: Activity was also found
- zone of inhibition at 1000 µg/mL (Ps. stutzeri 1231): 10 mm
- antibacterial activity in vivo (bacteria): broad spectrum of antibacterial activity
- efficacy against PPLO (PPLO [2]): effective
- activity [3]: Activity was also found
- zone of inhibition at 1000 µg/mL [4]: 13 mm
- ED50 (Proteus vulgaris): 1.73 mg./mouse
- efficacy in systemic infections produced by Bordetella bronchiseptica [5]: orally effective
- activity [6]: Activity was also found
- zone of inhibition at 1000 µg/mL [7]: 18 mm
- in vitro activity (M. arthritidis): effective
- activity (E. coli (MB 1418)): Activity was also found
- in vitro activity (Bordetella): effective
- zone of inhibition at 1000 µg/mL [8]: 27 mm
- activity [9]: Activity was also found
- activity [10]: Activity was also found
- zone of inhibition at 1000 µg/mL [11]: 11 mm
- efficacy against PPLO (PPLO [12]): effective
- in vitro activity (Streptococcus pyogenes): effective
- in vitro activity (M. gallisepticum): effective
- solubility in water-immiscible organic solvents (solubility): highly soluble
- zone of inhibition at 200 µg/mL (Vibrio percolans): 16 mm
- activity [13]: Activity was also found
- activity against species of Mycoplasma (species of Mycoplasma): shows activity
- in vitro activity (Streptococcus faecalis): effective
- stability to normal handling (stability to handling): stable to normal handling
- zone of inhibition at 1000 µg/mL (Escherichia coli 1418): 15 mm
- zone of inhibition at 1000 µg/mL (Strep. faecium 2820): 20 mm
- zone of inhibition at 1000 µg/mL [14]: 11 mm
- zone of inhibition at 1000 µg/mL [15]: 16 mm
- activity against gram-positive bacteria (gram-positive bacteria): shows activity; also recorded: effective

Reference: patent US4065356A, “Production of antibiotic FR-02A (efrotomycin) by streptomyces lactamdurans” (priority 1977, dated 1977)
